From the kinase profiling compilation of Christmann-Franck et al. (2016)

Columns and labels:
Experiment in all cases: KINOMEscan competition binding
Details in all cases: compound 10.0 µM
MAP2K6 (human) = MAP2K6 (human) (UniProt P52564)
MAP2K4 (human) = MAP2K4 (human) (UniProt P45985)
PLK2 (human) = PLK2 (human) (UniProt Q9NYY3)
MAPK6 (human) = MAPK6 (human) (UniProt Q16659)
RPS6KA6 KD2 (human) = RPS6KA6 KD2 (human) (UniProt Q9UK32)
CAMK2B (human) = CAMK2B (human) (UniProt Q13554)
MYO3B (human) = MYO3B (human) (UniProt Q8WXR4)
FGR (human) = FGR (human) (UniProt P09769)
ACVRL1 (human) = ACVRL1 (human) (UniProt P37023)
ACVR1B (human) = ACVR1B (human) (UniProt P36896)
MST4 (human) = MST4 (human) (UniProt Q9P289)
CDC42BPA (human) = CDC42BPA (human) (UniProt Q5VT25)
Chain of CDC42BPA (human) (Q5VT25 whole entry, looked up): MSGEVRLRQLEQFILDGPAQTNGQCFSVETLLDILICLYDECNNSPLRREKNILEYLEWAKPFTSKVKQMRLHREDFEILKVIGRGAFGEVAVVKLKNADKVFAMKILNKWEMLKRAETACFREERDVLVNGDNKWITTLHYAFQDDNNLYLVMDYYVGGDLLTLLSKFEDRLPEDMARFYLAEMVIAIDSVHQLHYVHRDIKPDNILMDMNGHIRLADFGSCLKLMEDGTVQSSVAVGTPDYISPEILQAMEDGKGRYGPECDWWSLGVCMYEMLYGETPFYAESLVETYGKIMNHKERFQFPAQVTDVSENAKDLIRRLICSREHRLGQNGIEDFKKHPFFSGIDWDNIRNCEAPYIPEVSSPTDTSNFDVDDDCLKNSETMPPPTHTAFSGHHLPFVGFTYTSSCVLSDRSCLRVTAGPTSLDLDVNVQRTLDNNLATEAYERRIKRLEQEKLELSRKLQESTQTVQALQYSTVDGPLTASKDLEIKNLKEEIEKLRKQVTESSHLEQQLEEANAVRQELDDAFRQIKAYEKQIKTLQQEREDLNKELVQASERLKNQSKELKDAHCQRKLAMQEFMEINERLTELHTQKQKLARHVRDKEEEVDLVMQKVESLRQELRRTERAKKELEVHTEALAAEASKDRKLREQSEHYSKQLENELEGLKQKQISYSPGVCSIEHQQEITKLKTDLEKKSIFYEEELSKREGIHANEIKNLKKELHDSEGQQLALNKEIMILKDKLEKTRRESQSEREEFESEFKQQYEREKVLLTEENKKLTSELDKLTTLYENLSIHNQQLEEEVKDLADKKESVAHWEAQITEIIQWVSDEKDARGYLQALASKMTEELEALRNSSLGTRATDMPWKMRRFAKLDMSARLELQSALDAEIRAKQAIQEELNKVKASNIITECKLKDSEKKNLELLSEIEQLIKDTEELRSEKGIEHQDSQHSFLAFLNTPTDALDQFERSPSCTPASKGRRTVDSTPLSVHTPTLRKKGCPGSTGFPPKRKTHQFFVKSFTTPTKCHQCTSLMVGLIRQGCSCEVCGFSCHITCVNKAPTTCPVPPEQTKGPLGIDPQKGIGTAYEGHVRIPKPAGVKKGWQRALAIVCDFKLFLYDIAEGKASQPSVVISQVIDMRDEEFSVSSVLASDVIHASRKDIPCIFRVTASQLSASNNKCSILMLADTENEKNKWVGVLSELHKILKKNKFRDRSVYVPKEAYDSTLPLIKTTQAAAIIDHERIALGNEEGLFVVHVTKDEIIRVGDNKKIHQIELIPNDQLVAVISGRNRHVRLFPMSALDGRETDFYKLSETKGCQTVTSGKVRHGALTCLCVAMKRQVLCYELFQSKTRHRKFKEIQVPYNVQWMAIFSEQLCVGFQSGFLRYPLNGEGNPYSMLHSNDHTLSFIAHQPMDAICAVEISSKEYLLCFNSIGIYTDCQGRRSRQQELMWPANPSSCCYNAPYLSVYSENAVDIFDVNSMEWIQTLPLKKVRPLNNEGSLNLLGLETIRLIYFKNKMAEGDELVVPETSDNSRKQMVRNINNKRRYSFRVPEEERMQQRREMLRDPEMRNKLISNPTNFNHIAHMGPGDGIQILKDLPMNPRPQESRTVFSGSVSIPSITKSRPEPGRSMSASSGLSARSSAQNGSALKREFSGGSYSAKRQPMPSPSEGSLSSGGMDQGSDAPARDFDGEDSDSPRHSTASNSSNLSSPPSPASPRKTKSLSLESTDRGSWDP

STK39 (human) = STK39 (human) (UniProt Q9UEW8)
CaMK1 (human) = CaMK1 (human) (UniProt Q14012)
EIF2AK2 (human) = EIF2AK2 (human) (UniProt P19525)
CAMK4 (human) = CAMK4 (human) (UniProt Q16566)
PLK1 (human) = PLK1 (human) (UniProt P53350)
Chain of PLK1 (human) (P53350 whole entry, looked up): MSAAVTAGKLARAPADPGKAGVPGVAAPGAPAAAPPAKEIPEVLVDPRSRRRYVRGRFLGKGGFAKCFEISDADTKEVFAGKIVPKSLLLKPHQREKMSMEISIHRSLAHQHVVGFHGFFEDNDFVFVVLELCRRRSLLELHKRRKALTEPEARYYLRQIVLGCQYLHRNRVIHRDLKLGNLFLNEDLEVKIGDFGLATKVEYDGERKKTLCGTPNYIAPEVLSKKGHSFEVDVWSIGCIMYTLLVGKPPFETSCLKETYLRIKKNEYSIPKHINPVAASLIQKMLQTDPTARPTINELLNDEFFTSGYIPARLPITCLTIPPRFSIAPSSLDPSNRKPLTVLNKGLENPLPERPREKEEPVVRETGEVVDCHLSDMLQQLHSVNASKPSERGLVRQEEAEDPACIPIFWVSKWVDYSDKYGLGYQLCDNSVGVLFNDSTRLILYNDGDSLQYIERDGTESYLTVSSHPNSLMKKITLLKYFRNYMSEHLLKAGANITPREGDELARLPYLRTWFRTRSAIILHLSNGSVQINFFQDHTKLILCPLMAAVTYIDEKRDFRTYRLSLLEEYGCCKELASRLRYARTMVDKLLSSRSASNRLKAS

[1] = molecular target: TYK2 JH2 pseudokinase (human) (UniProt P29597)
ERBB2 (human) = ERBB2 (human) (UniProt P04626)
PRKCQ (human) = PRKCQ (human) (UniProt Q04759)
PRKAA2 (human) = PRKAA2 (human) (UniProt P54646)
ERN1 (human) = ERN1 (human) (UniProt O75460)
TTK (human) = TTK (human) (UniProt P33981)
PKN2 (human) = PKN2 (human) (UniProt Q16513)
Chain of PKN2 (human) (Q16513 whole entry, looked up): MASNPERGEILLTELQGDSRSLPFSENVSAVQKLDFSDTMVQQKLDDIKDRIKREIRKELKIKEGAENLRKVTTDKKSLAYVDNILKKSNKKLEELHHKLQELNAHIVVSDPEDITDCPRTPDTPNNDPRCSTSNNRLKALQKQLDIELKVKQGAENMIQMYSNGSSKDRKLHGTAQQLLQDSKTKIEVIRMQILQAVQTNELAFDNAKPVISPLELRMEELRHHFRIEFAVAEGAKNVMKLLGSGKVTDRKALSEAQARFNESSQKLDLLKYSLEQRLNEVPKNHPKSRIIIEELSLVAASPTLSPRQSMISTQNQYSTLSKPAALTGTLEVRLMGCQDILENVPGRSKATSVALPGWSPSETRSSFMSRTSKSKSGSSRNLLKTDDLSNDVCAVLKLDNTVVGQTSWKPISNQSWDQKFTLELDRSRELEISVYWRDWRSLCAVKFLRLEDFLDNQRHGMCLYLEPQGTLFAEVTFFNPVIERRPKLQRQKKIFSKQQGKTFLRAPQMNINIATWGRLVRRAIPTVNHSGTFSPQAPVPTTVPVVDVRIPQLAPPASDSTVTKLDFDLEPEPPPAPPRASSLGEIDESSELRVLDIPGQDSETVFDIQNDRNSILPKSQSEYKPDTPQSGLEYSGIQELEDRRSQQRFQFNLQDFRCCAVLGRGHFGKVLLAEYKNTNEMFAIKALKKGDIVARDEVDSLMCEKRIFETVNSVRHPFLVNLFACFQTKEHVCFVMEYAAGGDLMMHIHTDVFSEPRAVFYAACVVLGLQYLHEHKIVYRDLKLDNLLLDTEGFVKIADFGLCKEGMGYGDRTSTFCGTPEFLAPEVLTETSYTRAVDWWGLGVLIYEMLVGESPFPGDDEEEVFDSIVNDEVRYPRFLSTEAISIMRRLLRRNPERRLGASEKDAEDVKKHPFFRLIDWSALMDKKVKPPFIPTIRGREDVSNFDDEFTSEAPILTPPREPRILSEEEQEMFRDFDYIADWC

CIT (human) = CIT (human) (UniProt O14578)
PRKACB (human) = PRKACB (human) (UniProt P22694)
GAK (human) = GAK (human) (UniProt O14976)
FGFR4 (human) = FGFR4 (human) (UniProt P22455)
MAP4K3 (human) = MAP4K3 (human) (UniProt Q8IVH8)
STK32A (human) = STK32A (human) (UniProt Q8WU08)
NEK7 (human) = NEK7 (human) (UniProt Q8TDX7)
[2] = test system: PIK3CA (human), P42336 [Q546K]
RPS6KA4 KD1 (human) = RPS6KA4 KD1 (human) (UniProt O75676)
MYLK4 (human) = MYLK4 (human) (UniProt Q86YV6)
BTK (human) = BTK (human) (UniProt Q06187)
DAPK1 (human) = DAPK1 (human) (UniProt P53355)
[3] = test system: FLT3 (human), P36888 [K663Q]
YSK4 (human) = YSK4 (human) (UniProt Q56UN5)
TLK2 (human) = TLK2 (human) (UniProt Q86UE8)
CSNK1G3 (human) = CSNK1G3 (human) (UniProt Q9Y6M4)
Chain of CSNK1G3 (human) (Q9Y6M4 whole entry, looked up): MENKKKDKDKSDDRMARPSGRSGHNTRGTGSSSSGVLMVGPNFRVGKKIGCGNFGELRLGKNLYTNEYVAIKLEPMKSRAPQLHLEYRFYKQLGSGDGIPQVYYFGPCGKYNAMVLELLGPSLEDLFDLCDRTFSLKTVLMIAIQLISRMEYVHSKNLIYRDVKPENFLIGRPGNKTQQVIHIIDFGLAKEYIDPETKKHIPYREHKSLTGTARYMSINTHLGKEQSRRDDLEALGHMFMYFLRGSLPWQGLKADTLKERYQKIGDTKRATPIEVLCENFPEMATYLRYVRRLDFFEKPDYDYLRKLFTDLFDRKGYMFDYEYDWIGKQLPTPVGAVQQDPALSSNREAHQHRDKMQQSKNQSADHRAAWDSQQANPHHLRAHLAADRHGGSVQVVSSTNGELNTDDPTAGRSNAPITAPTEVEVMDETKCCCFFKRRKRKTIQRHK

Chain of MAPK6 (human) (Q16659 whole entry, looked up): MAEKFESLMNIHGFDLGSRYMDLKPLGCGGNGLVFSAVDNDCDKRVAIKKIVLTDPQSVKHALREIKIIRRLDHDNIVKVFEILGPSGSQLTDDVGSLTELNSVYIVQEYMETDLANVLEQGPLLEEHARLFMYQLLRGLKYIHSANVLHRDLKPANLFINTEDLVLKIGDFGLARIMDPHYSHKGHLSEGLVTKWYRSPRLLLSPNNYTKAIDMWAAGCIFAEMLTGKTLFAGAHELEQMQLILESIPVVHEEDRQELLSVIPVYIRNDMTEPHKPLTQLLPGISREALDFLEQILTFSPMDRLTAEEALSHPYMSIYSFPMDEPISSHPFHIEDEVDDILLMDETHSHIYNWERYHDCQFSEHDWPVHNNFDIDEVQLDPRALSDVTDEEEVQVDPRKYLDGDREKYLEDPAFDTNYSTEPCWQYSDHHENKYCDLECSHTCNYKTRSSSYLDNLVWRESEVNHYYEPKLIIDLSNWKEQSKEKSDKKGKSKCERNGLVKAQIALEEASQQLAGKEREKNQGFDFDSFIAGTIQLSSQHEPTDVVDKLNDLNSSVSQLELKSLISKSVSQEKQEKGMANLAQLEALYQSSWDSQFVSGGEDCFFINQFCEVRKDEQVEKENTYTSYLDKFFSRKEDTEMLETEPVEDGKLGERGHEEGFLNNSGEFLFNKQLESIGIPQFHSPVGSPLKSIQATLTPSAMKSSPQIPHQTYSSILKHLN
Chain of MAP2K6 (human) (P52564 whole entry, looked up): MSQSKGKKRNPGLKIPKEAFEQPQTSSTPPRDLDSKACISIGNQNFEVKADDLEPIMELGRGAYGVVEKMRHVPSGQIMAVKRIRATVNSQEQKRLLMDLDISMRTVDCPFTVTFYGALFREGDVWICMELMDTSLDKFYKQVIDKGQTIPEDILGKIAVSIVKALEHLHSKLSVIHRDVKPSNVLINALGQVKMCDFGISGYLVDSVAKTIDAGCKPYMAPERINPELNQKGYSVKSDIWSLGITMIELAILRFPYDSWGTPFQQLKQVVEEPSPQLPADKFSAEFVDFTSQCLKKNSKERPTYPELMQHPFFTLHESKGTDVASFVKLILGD

kinase still bound, per cent of control (MAP2K6 (human))	kinase still bound, per cent of control (MAP2K4 (human))	kinase still bound, per cent of control (PLK2 (human))	kinase still bound, per cent of control (MAPK6 (human))	kinase still bound, per cent of control (RPS6KA6 KD2 (human))	kinase still bound, per cent of control (CAMK2B (human))	kinase still bound, per cent of control (MYO3B (human))	kinase still bound, per cent of control (FGR (human))	kinase still bound, per cent of control (ACVRL1 (human))	kinase still bound, per cent of control (ACVR1B (human))	kinase still bound, per cent of control (MST4 (human))	kinase still bound, per cent of control (CDC42BPA (human))	kinase still bound, per cent of control (STK39 (human))	kinase still bound, per cent of control (CaMK1 (human))	kinase still bound, per cent of control (EIF2AK2 (human))	kinase still bound, per cent of control (CAMK4 (human))	kinase still bound, per cent of control (PLK1 (human))	kinase still bound, per cent of control [1]	kinase still bound, per cent of control (ERBB2 (human))	kinase still bound, per cent of control (PRKCQ (human))	Structure (SMILES)	further results
100%	100%	100%	100%	100%	100%	100%	100%	100%	100%	100%	100%	100%	100%	100%	100%	100%	100%	100%	100%	Cn1c(=O)n(-c2ccc(C(C)(C)C#N)cc2)c2c3cc(-c4cnc5ccccc5c4)ccc3ncc21	kinase still bound, per cent of control [3]: 100%; kinase still bound, per cent of control (YSK4 (human)): 29%; kinase still bound, per cent of control (PRKAA2 (human)): 100%; kinase still bound, per cent of control (ERN1 (human)): 100%; kinase still bound, per cent of control (TTK (human)): 100%; kinase still bound, per cent of control (PKN2 (human)): 100%; kinase still bound, per cent of control (CIT (human)): 100%; kinase still bound, per cent of control (PRKACB (human)): 100%; kinase still bound, per cent of control (TLK2 (human)): 100%; kinase still bound, per cent of control (GAK (human)): 100%; kinase still bound, per cent of control (FGFR4 (human)): 100%; kinase still bound, per cent of control (MAP4K3 (human)): 100%; kinase still bound, per cent of control (NEK7 (human)): 100%; kinase still bound, per cent of control [2]: 3.8%; kinase still bound, per cent of control (RPS6KA4 KD1 (human)): 100%; kinase still bound, per cent of control (MYLK4 (human)): 100%; kinase still bound, per cent of control (CSNK1G3 (human)): 100%; kinase still bound, per cent of control (DAPK1 (human)): 100%
100%	100%	100%	100%	100%	100%	100%	100%	100%	100%	100%	100%	100%	100%	100%	100%	100%	100%	100%	100%	OCCCNc1cc(-c2ccnc(Nc3cccc(Cl)c3)n2)ccn1	kinase still bound, per cent of control [3]: 100%; kinase still bound, per cent of control (YSK4 (human)): 100%; kinase still bound, per cent of control (PRKAA2 (human)): 100%; kinase still bound, per cent of control (ERN1 (human)): 100%; kinase still bound, per cent of control (TTK (human)): 100%; kinase still bound, per cent of control (PKN2 (human)): 100%; kinase still bound, per cent of control (CIT (human)): 100%; kinase still bound, per cent of control (PRKACB (human)): 100%; kinase still bound, per cent of control (TLK2 (human)): 100%; kinase still bound, per cent of control (GAK (human)): 100%; kinase still bound, per cent of control (FGFR4 (human)): 100%; kinase still bound, per cent of control (MAP4K3 (human)): 100%; kinase still bound, per cent of control (NEK7 (human)): 100%; kinase still bound, per cent of control [2]: 100%; kinase still bound, per cent of control (RPS6KA4 KD1 (human)): 100%; kinase still bound, per cent of control (MYLK4 (human)): 100%; kinase still bound, per cent of control (BTK (human)): 100%; kinase still bound, per cent of control (CSNK1G3 (human)): 100%; kinase still bound, per cent of control (DAPK1 (human)): 100%
100%	100%	100%	100%	100%	100%	100%	100%	100%	100%	100%	100%	100%	100%	100%	100%	17%	100%	100%	100%	COc1cc(C(=O)NC2CCN(C)CC2)ccc1Nc1ncc2c(n1)N(C1CCCC1)CCC(=O)N2C(C)C	kinase still bound, per cent of control [3]: 100%; kinase still bound, per cent of control (YSK4 (human)): 100%; kinase still bound, per cent of control (PRKAA2 (human)): 100%; kinase still bound, per cent of control (ERN1 (human)): 100%; kinase still bound, per cent of control (TTK (human)): 100%; kinase still bound, per cent of control (PKN2 (human)): 100%; kinase still bound, per cent of control (CIT (human)): 100%; kinase still bound, per cent of control (PRKACB (human)): 100%; kinase still bound, per cent of control (TLK2 (human)): 100%; kinase still bound, per cent of control (GAK (human)): 100%; kinase still bound, per cent of control (FGFR4 (human)): 100%; kinase still bound, per cent of control (MAP4K3 (human)): 100%; kinase still bound, per cent of control (NEK7 (human)): 100%; kinase still bound, per cent of control [2]: 100%; kinase still bound, per cent of control (RPS6KA4 KD1 (human)): 100%; kinase still bound, per cent of control (MYLK4 (human)): 100%; kinase still bound, per cent of control (BTK (human)): 100%; kinase still bound, per cent of control (CSNK1G3 (human)): 100%; kinase still bound, per cent of control (DAPK1 (human)): 100%

Structure (SMILES)	kinase still bound, per cent of control (MAP2K6 (human))	kinase still bound, per cent of control (MAP2K4 (human))	kinase still bound, per cent of control (PLK2 (human))	kinase still bound, per cent of control (MAPK6 (human))	kinase still bound, per cent of control (RPS6KA6 KD2 (human))	kinase still bound, per cent of control (CAMK2B (human))	kinase still bound, per cent of control (MYO3B (human))	kinase still bound, per cent of control (FGR (human))	kinase still bound, per cent of control (ACVRL1 (human))	kinase still bound, per cent of control (ACVR1B (human))	kinase still bound, per cent of control (MST4 (human))	kinase still bound, per cent of control (CDC42BPA (human))	kinase still bound, per cent of control (STK39 (human))	kinase still bound, per cent of control (CaMK1 (human))	kinase still bound, per cent of control (EIF2AK2 (human))	kinase still bound, per cent of control (CAMK4 (human))	kinase still bound, per cent of control (PLK1 (human))	kinase still bound, per cent of control [1]	kinase still bound, per cent of control (ERBB2 (human))	kinase still bound, per cent of control (PRKCQ (human))	further results
CCOc1cc2ncc(C#N)c(Nc3ccc(OCc4ccccn4)c(Cl)c3)c2cc1NC(=O)/C=C/CN(C)C	100%	72%	85%	100%	97%	100%	100%	40%	100%	100%	2%	91%	84%	88%	100%	100%	57%	99%	0%	100%	kinase still bound, per cent of control (PRKAA2 (human)): 80%; kinase still bound, per cent of control (ERN1 (human)): 80%; kinase still bound, per cent of control (TTK (human)): 100%; kinase still bound, per cent of control (PKN2 (human)): 72%; kinase still bound, per cent of control (CIT (human)): 95%; kinase still bound, per cent of control (PRKACB (human)): 100%; kinase still bound, per cent of control (GAK (human)): 10%; kinase still bound, per cent of control (FGFR4 (human)): 100%; kinase still bound, per cent of control (MAP4K3 (human)): 2.1%; kinase still bound, per cent of control (STK32A (human)): 77%; kinase still bound, per cent of control (NEK7 (human)): 100%; kinase still bound, per cent of control [2]: 100%; kinase still bound, per cent of control (RPS6KA4 KD1 (human)): 100%; kinase still bound, per cent of control (MYLK4 (human)): 86%; kinase still bound, per cent of control (BTK (human)): 4.4%; kinase still bound, per cent of control (DAPK1 (human)): 98%
